Experimental data published in ChEMBL document CHEMBL5500347, “An update on antibacterial AlkylGuanidino Ureas: Design of new derivatives, synergism with colistin and data analysis of the whole library” (2024).
≈ marks a conversion by molar mass, not a printed value. Calls of active or inactive are those of the source. No cut-off for these calls is given here.

Assays:
[1] = system: Escherichia coli; assay: Antibacterial activity against Escherichia coli CCUGT incubated for 18 to 24 hrs by CLSI based microdilution broth method; type: functional; conditions: time 18-24 hrs
[2] = system: Klebsiella pneumoniae; assay: Antibacterial activity against Klebsiella pneumoniae ATCC 13833 incubated for 18 to 24 hrs by CLSI based microdilution broth method; type: functional; conditions: time 18-24 hrs
[3] = system: Acinetobacter baumannii; assay: Antibacterial activity against Acinetobacter baumannii ATCC 17978 incubated for 18 to 24 hrs by CLSI based microdilution broth method; type: functional; conditions: time 18-24 hrs; for MIC: Acinetobacter baumannii, ATCC 17978
[4] = system: Pseudomonas aeruginosa; assay: Antibacterial activity against Pseudomonas aeruginosa ATCC 27853 incubated for 18 to 24 hrs by CLSI based microdilution broth method; type: functional; conditions: time 18-24 hrs; for MIC: Pseudomonas aeruginosa, ATCC 27853
[5] = system: Escherichia coli; assay: Synergistic antibacterial activity against Escherichia coli CCUGT incubated for 18 to 24 hrs in presence of colistin by CLSI based microdilution broth method; type: functional; conditions: time 18-24 hrs
[6] = system: Escherichia coli; assay: Synergistic antibacterial activity against Escherichia coli CCUGT assessed as potentiation fold by measuring MIC to MAC ratio incubated for 18 to 24 hrs in presence of colistin by CLSI based microdilution broth method; type: functional; conditions: time 18-24 hrs
[7] = system: Klebsiella pneumoniae; assay: Synergistic antibacterial activity against Klebsiella pneumoniae ATCC 13833 incubated for 18 to 24 hrs in presence of colistin by CLSI based microdilution broth method; type: functional; conditions: time 18-24 hrs
[8] = system: Klebsiella pneumoniae; assay: Synergistic antibacterial activity against Klebsiella pneumoniae ATCC 13833 assessed as potentiation fold by measuring MIC to MAC ratio incubated for 18 to 24 hrs in presence of colistin by CLSI based microdilution broth method; type: functional; conditions: time 18-24 hrs
[9] = system: Pseudomonas aeruginosa; assay: Synergistic antibacterial activity against Pseudomonas aeruginosa ATCC 27853 incubated for 18 to 24 hrs in presence of colistin by CLSI based microdilution broth method; type: functional; conditions: time 18-24 hrs
[10] = system: Pseudomonas aeruginosa; assay: Synergistic antibacterial activity against Pseudomonas aeruginosa ATCC 27853 assessed as potentiation fold by measuring MIC to MAC ratio incubated for 18 to 24 hrs in presence of colistin by CLSI based microdilution broth method; type: functional; conditions: time 18-24 hrs
[11] = system: Acinetobacter baumannii; assay: Synergistic antibacterial activity against Acinetobacter baumannii ATCC 17978 incubated for 18 to 24 hrs in presence of colistin by CLSI based microdilution broth method; type: functional; conditions: time 18-24 hrs
[12] = system: Acinetobacter baumannii; assay: Synergistic antibacterial activity against Acinetobacter baumannii ATCC 17978 assessed as potentiation fold by measuring MIC to MAC ratio incubated for 18 to 24 hrs in presence of colistin by CLSI based microdilution broth method; type: functional; conditions: time 18-24 hrs
[13] = system: Acinetobacter baumannii; assay: Antibacterial activity against Acinetobacter baumannii N50 incubated for 18 to 24 hrs by CLSI based microdilution broth method; type: functional; conditions: time 18-24 hrs
[14] = system: Acinetobacter baumannii; assay: Synergistic antibacterial activity against Acinetobacter baumannii N50 incubated for 18 to 24 hrs in presence of colistin by CLSI based microdilution broth method; type: functional; conditions: time 18-24 hrs
[15] = system: Acinetobacter baumannii; assay: Synergistic antibacterial activity against Acinetobacter baumannii N50 assessed as potentiation fold by measuring MIC to MAC ratio incubated for 18 to 24 hrs in presence of colistin by CLSI based microdilution broth method; type: functional; conditions: time 18-24 hrs
[16] = system: Bacillus subtilis; assay: Antibacterial activity against Bacillus subtilis ATCC 6633 incubated for 18 to 24 hrs by CLSI based microdilution broth method; type: functional; conditions: time 18-24 hrs
[17] = system: Enterococcus faecalis; assay: Antibacterial activity against Enterococcus faecalis ATCC 19433 incubated for 18 to 24 hrs by CLSI based microdilution broth method; type: functional; conditions: time 18-24 hrs
[18] = system: Streptococcus pyogenes; assay: Antibacterial activity against Streptococcus pyogenes ATCC 12344 incubated for 18 to 24 hrs by CLSI based microdilution broth method; type: functional; conditions: time 18-24 hrs
[19] = system: Staphylococcus aureus; assay: Antibacterial activity against Staphylococcus aureus ATCC 25923 incubated for 18 to 24 hrs by CLSI based microdilution broth method; type: functional; conditions: time 18-24 hrs
[20] = system: Bacillus subtilis; assay: Antibacterial activity against Bacillus subtilis ATCC 6633 at 256 ug/ml incubated for 18 to 24 hrs by CLSI based microdilution broth method; type: functional, organism-based; conditions: dose 256.0 µg/ml, time 18-24 hrs
[21] = system: Enterococcus faecalis; assay: Antibacterial activity against Enterococcus faecalis ATCC 19433 at 256 ug/ml incubated for 18 to 24 hrs by CLSI based microdilution broth method; type: functional, organism-based; conditions: dose 256.0 µg/ml, time 18-24 hrs
[22] = system: Streptococcus pyogenes; assay: Antibacterial activity against Streptococcus pyogenes ATCC 12344 at 256 ug/ml incubated for 18 to 24 hrs by CLSI based microdilution broth method; type: functional, organism-based; conditions: dose 256.0 µg/ml, time 18-24 hrs
[23] = system: Staphylococcus aureus; assay: Antibacterial activity against Staphylococcus aureus ATCC 25923 at 256 ug/ml incubated for 18 to 24 hrs by CLSI based microdilution broth method; type: functional, organism-based; conditions: dose 256.0 µg/ml, time 18-24 hrs
[24] = system: Escherichia coli; assay: Antibacterial activity against Escherichia coli CCUGT at 256 ug/ml incubated for 18 to 24 hrs by CLSI based microdilution broth method; type: functional, organism-based; conditions: dose 256.0 µg/ml, time 18-24 hrs
[25] = system: Klebsiella pneumoniae; assay: Antibacterial activity against Klebsiella pneumoniae ATCC 13833 at 256 ug/ml incubated for 18 to 24 hrs by CLSI based microdilution broth method; type: functional, organism-based; conditions: dose 256.0 µg/ml, time 18-24 hrs
[26] = system: Acinetobacter baumannii; assay: Antibacterial activity against Acinetobacter baumannii ATCC 17978 at 256 ug/ml incubated for 18 to 24 hrs by CLSI based microdilution broth method; type: functional, organism-based; conditions: dose 256.0 µg/ml, time 18-24 hrs
[27] = system: Pseudomonas aeruginosa; assay: Antibacterial activity against Pseudomonas aeruginosa ATCC 27853 at 256 ug/ml incubated for 18 to 24 hrs by CLSI based microdilution broth method; type: functional, organism-based; conditions: dose 256.0 µg/ml, time 18-24 hrs
[28] = Escherichia coli, CCUGT, read-out: MIC
[29] = Klebsiella pneumoniae, ATCC 13833, read-out: MIC

Compound | MIC [1, 28] | MIC [2, 29] | MIC [3] | MIC [4] | MIC [13] | MAC [5] | Ratio [6] | MAC [7] | Ratio [8] | MAC [9] | Ratio [10] | MAC [11] | Ratio [12] | MAC [14] | Ratio [15] | other results
N=C(N)NCCCCCCN(CCCCCCNC(=N)NCC1CC1)C(=O)N(CCCCCCNC(=N)N)CCCCCCNC(=N)NCC1CC1 | 16 µg/mL (≈ 21.8 µM) | 32 µg/mL (≈ 43.6 µM) | 128 µg/mL (≈ 175 µM) | 256 µg/mL (≈ 349 µM) | > 256 µg/mL | 1 µg/mL | 16 | 16 µg/mL | 2 | 8 µg/mL | 32 | 1 µg/mL | 128 | >256 µg/mL | 1 | –
N=C(N)NCCCCCCCCN(CCCCCCCCN)C(=O)N(CCCCCCCCN)CCCCCCCCNC(=N)NCC1CC1 | – | – | – | – | 32 µg/mL (≈ 45.3 µM) | 0.5 µg/mL | 64 | 32 µg/mL | 2 | 8 µg/mL | 16 | 8 µg/mL | 8 | 4 µg/mL | 8 | MIC [1]: 32 µg/mL (≈ 45.3 µM); MIC [2]: 64 µg/mL (≈ 90.5 µM); MAC [3]: 64 µg/mL; MAC [4]: 128 µg/mL
[N-]=[N+]=NCCCCCCCCN(CCCCCCCCNC(c1ccccc1)(c1ccccc1)c1ccccc1)C(=O)N(CCCCCCCCN=[N+]=[N-])CCCCCCCCNC(c1ccccc1)(c1ccccc1)c1ccccc1 | – | – | – | – | – | – | – | – | – | – | – | – | – | – | – | Activity [20]: inactive; Activity [21]: inactive; Activity [22]: inactive; Activity [23]: inactive; Activity [24]: inactive; Activity [25]: inactive; Activity [26]: inactive; Activity [27]: inactive

The next lines start with results.

MIC [1, 28] | MIC [2, 29] | MIC [3] | MIC [4] | MIC [13] | Compound | MAC [5] | Ratio [6] | MAC [7] | Ratio [8] | MAC [9] | Ratio [10] | MAC [11] | Ratio [12] | MAC [14] | Ratio [15] | other results
32 µg/mL | 32 µg/mL | 64 µg/mL | > 256 µg/mL | 32 µg/mL | O=C(O)C(F)(F)F.[N-]=[N+]=NCCCCCCCCN(CCCCCCCCNC(=N)N)C(=O)N(CCCCCCCCN=[N+]=[N-])CCCCCCCCNC(=N)N | 32 µg/mL | 1 | 2 µg/mL | 16 | 16 µg/mL | >16 | 64 µg/mL | 1 | 32 µg/mL | 1 | MIC [16]: 8 µg/mL; MIC [17]: 16 µg/mL; MIC [18]: 8 µg/mL; MIC [19]: 2 µg/mL
> 256 µg/mL | > 256 µg/mL | > 64 µg/mL | > 256 µg/mL | > 64 µg/mL | N=C(N)NCCCCCCCCN(CCCCCCCCNC(=N)NCC1CC1)C(=O)NC(=N)NCCCCCCCCNCCCCCCCCNC(=N)NCC1CC1 | 0.5 µg/mL | >512 | 1 µg/mL | >256 | 2 µg/mL | >128 | 0.125 µg/mL | >256 | 0.5 µg/mL | >128 | –
